Data from ChEMBL document CHEMBL4312037, “Fragment hopping-based discovery of novel sulfinylacetamide-diarylpyrimidines (DAPYs) as HIV-1 nonnucleoside reverse transcriptase inhibitors” (Eur J Med Chem, 2020).

Legend:
[1] = test system: Human immunodeficiency virus 1; assay: Antiviral activity against HIV1 3B infected in human MT4 cells assessed as virus-induced cytopathic effect incubated for 5 days by MTT assay; type: functional, organism-based; conditions: Human immunodeficiency virus 1, 3B, MT4, 120 h
[2] = Cytotoxicity against human MT4 cells assessed as reduction in cell viability incubated for 5 days by MTT assay; type: cell-based
in vitro [3] = conditions: human, MT4 cells; MT4 cells infected with HIV1 3B
Description: Selectivity index, ratio of CC50 for cytotoxicity against human MT4 cells to EC50 for antiviral activity against HIV1 3B infected in human MT4 cells

[4] = test system: Human immunodeficiency virus 1; assay: Antiviral activity against HIV1 3B harbouring NNRTI K103N mutant infected in human MT4 cells assessed as virus-induced cytopathic effect incubated for 5 days by MTT assay; type: functional, organism-based; conditions: Human immunodeficiency virus 1, 3B, MT4, 120 h
in vitro [5] = conditions: human, MT4 cells; MT4 cells infected with HIV1 3B K103N mutant
Description: Selectivity index, ratio of CC50 for cytotoxicity against human MT4 cells to EC50 for antiviral activity against HIV1 3B harbouring NNRTI K103N mutant infected in human MT4 cells

SMILES: COc1cc2nc(SCC(=O)Nc3ccc(C)cc3)nc(Nc3c(Cl)cc(/C=C/C#N)cc3Cl)c2cc1OC
- EC50 [1]: > 2.53 µM
- CC50 at 120 h [2]: 2.54 µM
- selectivity ratio (in vitro [3]): < 1

SMILES: COc1cc2nc(Nc3ccc(C#N)cc3)nc(Nc3c(C)cc(/C=C/C#N)cc3F)c2cc1OC
- EC50 [4]: 0.011 µM
- selectivity ratio (in vitro [5]): > 4720
- EC50 [1]: 0.0122 µM
- CC50 at 120 h [2]: > 52 µM
- selectivity ratio (in vitro [3]): > 4250

SMILES: COc1cc2nc([S+]([O-])CC(=O)Nc3ccc([N+](=O)[O-])cc3)nc(Nc3c(Cl)cc(/C=C/C#N)cc3Cl)c2cc1OC (stereo unspecified)
- EC50 [4]: 0.031 µM
- selectivity ratio (in vitro [5]): 2990
- EC50 [1]: 0.0385 µM
- CC50 at 120 h [2]: 92.8 µM
- selectivity ratio (in vitro [3]): 2410

SMILES: COc1cc2nc([S+]([O-])CC(=O)Nc3ccc(C#N)cc3)nc(Nc3c(Cl)cc(/C=C/C#N)cc3Cl)c2cc1OC (stereo unspecified)
- EC50 [4]: 0.0426 µM
- selectivity ratio (in vitro [5]): ≥ 4420
- EC50 [1]: 0.0582 µM
- CC50 at 120 h [2]: ≥ 188 µM
- selectivity ratio (in vitro [3]): ≥ 3240

SMILES: COc1cc2nc([S+]([O-])CC(=O)Nc3ccccc3[N+](=O)[O-])nc(Nc3c(Cl)cc(/C=C/C#N)cc3Cl)c2cc1OC (stereo unspecified)
- EC50 [1]: > 199 µM
- CC50 at 120 h [2]: > 199 µM

SMILES: COc1cc2nc(SCC(=O)Nc3ccc(Cl)cc3)nc(Nc3c(Cl)cc(/C=C/C#N)cc3Cl)c2cc1OC
- EC50 [4]: 0.677 µM
- selectivity ratio (in vitro [5]): 44
- EC50 [1]: 1.25 µM
- CC50 at 120 h [2]: 29.5 µM
- selectivity ratio (in vitro [3]): 24

SMILES: COc1ccc(NC(=O)CSc2nc(Nc3c(C)cc(/C=C/C#N)cc3C)c3cc(OC)c(OC)cc3n2)cc1
- EC50 [4]: 0.745 µM
- selectivity ratio (in vitro [5]): > 302
- EC50 [1]: 2.75 µM
- CC50 at 120 h [2]: > 225 µM
- selectivity ratio (in vitro [3]): > 82

SMILES: COc1cc2nc([S+]([O-])CC(=O)Nc3ccccc3C#N)nc(Nc3c(Cl)cc(/C=C/C#N)cc3Cl)c2cc1OC (stereo unspecified)
- EC50 [4]: 11.7 µM
- selectivity ratio (in vitro [5]): > 18
- EC50 [1]: 30.6 µM
- CC50 at 120 h [2]: > 206 µM
- selectivity ratio (in vitro [3]): > 7

SMILES: COc1cc2nc([S+]([O-])CC(=O)Nc3ccccc3C(F)(F)F)nc(Nc3c(Cl)cc(/C=C/C#N)cc3Cl)c2cc1OC (stereo unspecified)
- EC50 [4]: > 192 µM
- EC50 [1]: 67.1 µM
- CC50 at 120 h [2]: > 192 µM
- selectivity ratio (in vitro [3]): > 3

SMILES: COc1cc2nc(Nc3ccc(C#N)cc3)nc(Nc3c(F)cc(/C=C/C#N)cc3F)c2cc1OC
- EC50 [4]: 0.0181 µM
- selectivity ratio (in vitro [5]): 355
- EC50 [1]: 0.0411 µM
- CC50 at 120 h [2]: 6.4 µM
- selectivity ratio (in vitro [3]): 156

SMILES: COc1cc2nc([S+]([O-])CC(=O)Nc3c(C)cc(C)cc3C)nc(Nc3c(Cl)cc(/C=C/C#N)cc3Cl)c2cc1OC (stereo unspecified)
- EC50 [1]: 7.31 µM
- CC50 at 120 h [2]: 8.87 µM
- selectivity ratio (in vitro [3]): 1

SMILES: COc1cc2nc([S+]([O-])CC(=O)Nc3ccc(C(F)(F)F)cc3)nc(Nc3c(Cl)cc(/C=C/C#N)cc3Cl)c2cc1OC (stereo unspecified)
- EC50 [4]: 0.0889 µM
- selectivity ratio (in vitro [5]): 247
- EC50 [1]: 0.227 µM
- CC50 at 120 h [2]: 22 µM
- selectivity ratio (in vitro [3]): 97

SMILES: COc1cc2nc([S+]([O-])CC(=O)Nc3cccc(C#N)c3)nc(Nc3c(Cl)cc(/C=C/C#N)cc3Cl)c2cc1OC (stereo unspecified)
- EC50 [4]: 0.0383 µM
- selectivity ratio (in vitro [5]): ≥ 1840
- EC50 [1]: 0.0996 µM
- CC50 at 120 h [2]: ≥ 70.3 µM
- selectivity ratio (in vitro [3]): ≥ 706

SMILES: COc1cc2nc([S+]([O-])CC(=O)Nc3cccc([N+](=O)[O-])c3)nc(Nc3c(Cl)cc(/C=C/C#N)cc3Cl)c2cc1OC (stereo unspecified)
- EC50 [4]: 0.27 µM
- selectivity ratio (in vitro [5]): ≥ 308
- EC50 [1]: 0.423 µM
- CC50 at 120 h [2]: ≥ 83.2 µM
- selectivity ratio (in vitro [3]): ≥ 197

SMILES: COc1cc2nc(SCC(=O)Nc3ccc(C(F)(F)F)cc3)nc(Nc3c(Cl)cc(/C=C/C#N)cc3Cl)c2cc1OC
- EC50 [4]: 3.91 µM
- selectivity ratio (in vitro [5]): > 50
- EC50 [1]: 20 µM
- CC50 at 120 h [2]: > 197 µM
- selectivity ratio (in vitro [3]): > 10

SMILES: COc1cc2nc([S+]([O-])CC(=O)Nc3ccc(C(F)(F)F)cc3)nc(Nc3c(C)cc(/C=C/C#N)cc3C)c2cc1OC (stereo unspecified)
- EC50 [4]: 0.249 µM
- selectivity ratio (in vitro [5]): 210
- EC50 [1]: 0.45 µM
- CC50 at 120 h [2]: 52.2 µM
- selectivity ratio (in vitro [3]): 116

SMILES: COc1cc2nc(SCC(=O)Nc3ccc(C(F)(F)F)cc3)nc(Nc3c(C)cc(/C=C/C#N)cc3C)c2cc1OC
- EC50 [4]: 2.41 µM
- selectivity ratio (in vitro [5]): > 87
- EC50 [1]: 5.28 µM
- CC50 at 120 h [2]: > 211 µM
- selectivity ratio (in vitro [3]): > 40

SMILES: COc1cc2nc(SCC(=O)Nc3ccc(S(N)(=O)=O)cc3)nc(Nc3c(Cl)cc(/C=C/C#N)cc3Cl)c2cc1OC
- EC50 [1]: > 116 µM
- CC50 at 120 h [2]: 116 µM
- selectivity ratio (in vitro [3]): < 1

SMILES: COc1cc2nc(SCC(=O)Nc3cccc(S(N)(=O)=O)c3)nc(Nc3c(Cl)cc(/C=C/C#N)cc3Cl)c2cc1OC
- EC50 [1]: > 194 µM
- CC50 at 120 h [2]: > 194 µM
- selectivity ratio (in vitro [3]): > 1

SMILES: COc1cc2nc(SCC(=O)Nc3cccc(Cl)c3)nc(Nc3c(Cl)cc(/C=C/C#N)cc3Cl)c2cc1OC
- EC50 [1]: > 208 µM
- CC50 at 120 h [2]: > 208 µM
- selectivity ratio (in vitro [3]): > 1

SMILES: COc1cc2nc([S+]([O-])CC(=O)Nc3cccc(S(N)(=O)=O)c3)nc(Nc3c(Cl)cc(/C=C/C#N)cc3Cl)c2cc1OC (stereo unspecified)
- EC50 [1]: > 67.8 µM
- CC50 at 120 h [2]: 67.8 µM
- selectivity ratio (in vitro [3]): < 1

SMILES: COc1cc2nc([S+]([O-])CC(=O)Nc3cccc(F)c3)nc(Nc3c(Cl)cc(/C=C/C#N)cc3Cl)c2cc1OC (stereo unspecified)
- EC50 [4]: 0.0696 µM
- selectivity ratio (in vitro [5]): 137
- EC50 [1]: 0.237 µM
- CC50 at 120 h [2]: 9.55 µM
- selectivity ratio (in vitro [3]): 40

SMILES: COc1cc2nc(SCC(=O)Nc3cc([N+](=O)[O-])ccc3F)nc(Nc3c(Cl)cc(/C=C/C#N)cc3Cl)c2cc1OC
- EC50 [1]: > 199 µM
- CC50 at 120 h [2]: > 199 µM
- selectivity ratio (in vitro [3]): > 1

SMILES: COc1cc2nc([S+]([O-])CC(=O)Nc3ccccc3F)nc(Nc3c(Cl)cc(/C=C/C#N)cc3Cl)c2cc1OC (stereo unspecified)
- EC50 [4]: 5.66 µM
- selectivity ratio (in vitro [5]): > 37
- EC50 [1]: 17 µM
- CC50 at 120 h [2]: > 208 µM
- selectivity ratio (in vitro [3]): > 12

SMILES: COc1cc2nc([S+]([O-])CC(=O)Nc3ccc(F)cc3)nc(Nc3c(C)cc(/C=C/C#N)cc3C)c2cc1OC (stereo unspecified)
- EC50 [4]: 0.0329 µM
- selectivity ratio (in vitro [5]): 833
- EC50 [1]: 0.131 µM
- CC50 at 120 h [2]: 27.4 µM
- selectivity ratio (in vitro [3]): 209

SMILES: COc1cc2nc(SCC(=O)Nc3ccc(F)cc3)nc(Nc3c(C)cc(/C=C/C#N)cc3C)c2cc1OC
- EC50 [4]: 0.942 µM
- selectivity ratio (in vitro [5]): ≥ 159
- EC50 [1]: 2.28 µM
- CC50 at 120 h [2]: ≥ 150 µM
- selectivity ratio (in vitro [3]): ≥ 66

SMILES: COc1cc2nc([S+]([O-])CC(=O)Nc3cccc(C(F)(F)F)c3)nc(Nc3c(Cl)cc(/C=C/C#N)cc3Cl)c2cc1OC (stereo unspecified)
- EC50 [4]: 0.626 µM
- selectivity ratio (in vitro [5]): 35
- EC50 [1]: 1.27 µM
- CC50 at 120 h [2]: 21.8 µM
- selectivity ratio (in vitro [3]): 17

SMILES: COc1cc2nc([S+]([O-])CC(=O)Nc3cccc(Cl)c3)nc(Nc3c(Cl)cc(/C=C/C#N)cc3Cl)c2cc1OC (stereo unspecified)
- EC50 [4]: 0.0687 µM
- selectivity ratio (in vitro [5]): 1000
- EC50 [1]: 0.313 µM
- CC50 at 120 h [2]: 68.9 µM
- selectivity ratio (in vitro [3]): 220

SMILES: COc1cc2nc([S+]([O-])CC(=O)Nc3ccc(Cl)cc3)nc(Nc3c(Cl)cc(/C=C/C#N)cc3Cl)c2cc1OC (stereo unspecified)
- EC50 [4]: 0.0263 µM
- selectivity ratio (in vitro [5]): 550
- EC50 [1]: 0.0461 µM
- CC50 at 120 h [2]: 14.4 µM
- selectivity ratio (in vitro [3]): 313

SMILES: O=C1Nc2ccc(Cl)cc2[C@@](C#CC2CC2)(C(F)(F)F)O1 [EFAVIRENZ]
- EC50 [4]: 0.124 µM
- EC50 [1]: 0.0038 µM
- CC50 at 120 h [2]: > 6.34 µM

SMILES: Cc1cc(C#N)cc(C)c1Oc1nc(Nc2ccc(C#N)cc2)nc(N)c1Br [ETRAVIRINE]
- EC50 [4]: 0.0037 µM
- EC50 [1]: 0.0042 µM
- CC50 at 120 h [2]: > 4.59 µM

SMILES: Cc1ccnc2c1NC(=O)c1cccnc1N2C1CC1 [NEVIRAPINE]
- EC50 [4]: ≥ 11.2 µM
- EC50 [1]: 0.235 µM
- CC50 at 120 h [2]: > 15 µM
